Active and inactive are the calls of the source. No cut-off for these calls is given here.
Tests used:
[1] = target: T1, Signal transducer and activator of transcription 3 (Homo sapiens, UniProt P40763); experiment: Inhibition of 5-carboxyfluorescein-GY(PO3H2)LPQTV-NH2 peptide probe binding to human STAT3 SH2 domain preincubated for 30 mins followed by probe addition and measured after 1 hr by fluorescence polarization assay
DU-145 [2] = experiment: Antitumor activity against human DU-145 cells xenografted in Balb/c nude mouse model assessed as tumor growth inhibition at 50 mg/kg, ip administered once daily for 16 days by vernier caliper method relative to control; format: functional; conditions: DU-145, 384 h, time 16 day, read-out: TGI
[3] = Metabolic stability in mouse liver microsomes assessed as half life in presence of NADPH/UDPGA; format: ADME, Microsome
MDA-MB-231 [4] = experiment: Induction of apoptosis in human MDA-MB-231 cells assessed as early apoptotic cells at 1 uM measured after 48 hrs by annexin V-FITC and PI staining based flow cytometry analysis (reference value: 6.7%); format: functional
[5] = AUC (0 to infinity) in ICR mouse at 50 mg/kg, po measured upto 96 hrs by HPLC-MS/MS analysis; format: ADME, organism-based; set-up: time < 96 hrs, dose 50 mg/kg, route po; conditions: in vivo
DU-145 [6] = experiment: Induction of apoptosis in human DU-145 cells assessed as early apoptotic cells at 10 uM measured after 48 hrs by annexin V-FITC and PI staining based flow cytometry analysis (reference value: 2.5%); format: functional
[7] = target: T2, Signal transducer and activator of transcription 1-alpha/beta (Homo sapiens) (UniProt P42224); experiment: Inhibition of STAT1 phosphorylation in human DU-145 cells at 10 uM measured after 24 hrs by Western blot analysis; format: cell-based
T2 sequence (whole entry): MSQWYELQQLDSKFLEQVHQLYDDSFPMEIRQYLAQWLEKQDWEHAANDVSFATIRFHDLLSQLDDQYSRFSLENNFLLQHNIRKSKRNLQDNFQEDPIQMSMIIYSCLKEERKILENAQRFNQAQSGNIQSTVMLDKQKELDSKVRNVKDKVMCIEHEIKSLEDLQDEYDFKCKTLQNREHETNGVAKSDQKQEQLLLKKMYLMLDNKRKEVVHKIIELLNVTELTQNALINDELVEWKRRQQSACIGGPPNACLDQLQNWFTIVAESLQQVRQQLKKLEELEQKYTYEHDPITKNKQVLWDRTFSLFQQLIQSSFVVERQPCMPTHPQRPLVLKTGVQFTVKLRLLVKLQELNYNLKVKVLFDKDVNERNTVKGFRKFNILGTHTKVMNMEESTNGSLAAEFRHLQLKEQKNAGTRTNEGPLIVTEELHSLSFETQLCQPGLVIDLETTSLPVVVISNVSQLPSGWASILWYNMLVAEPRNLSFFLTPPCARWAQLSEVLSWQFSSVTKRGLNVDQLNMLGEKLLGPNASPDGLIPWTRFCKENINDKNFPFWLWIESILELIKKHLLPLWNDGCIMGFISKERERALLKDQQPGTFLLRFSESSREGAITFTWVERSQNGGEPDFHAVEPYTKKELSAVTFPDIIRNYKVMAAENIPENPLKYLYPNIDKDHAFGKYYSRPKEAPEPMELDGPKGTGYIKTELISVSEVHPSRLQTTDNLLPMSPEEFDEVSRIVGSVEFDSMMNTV

[8] = target: T1, Signal transducer and activator of transcription 3; experiment: Inhibition of STAT3 in human DU-145 cells assessed as downregulation of Bcl-2 expression at upto 10 uM measured after 24 hrs; format: cell-based
MDA-MB-231 [9] = experiment: Induction of apoptosis in human MDA-MB-231 cells assessed as early apoptotic cells at 5 uM measured after 48 hrs by annexin V-FITC and PI staining based flow cytometry analysis (reference value: 6.7%); format: functional
[10] = target: T1, Signal transducer and activator of transcription 3; experiment: Binding affinity to STAT3 (unknown origin) assessed as conformational change in STAT3 protein measured after 1 hr by circular dichroism method
[11] = Cmax in ICR mouse at 50 mg/kg, po measured upto 96 hrs by HPLC-MS/MS analysis; format: ADME, organism-based; set-up: time < 96 hrs, dose 50 mg/kg, route po; conditions: in vivo
[12] = MRT (0 to t) in ICR mouse at 50 mg/kg, po measured upto 96 hrs by HPLC-MS/MS analysis; format: ADME, organism-based; conditions: in vivo
[13] = Toxicity in Balb/c mouse assessed as effect on spleen at 50 mg/kg by hematoxylin and eosin staining based histopathological analysis; format: organism-based; conditions: in vivo
[14] = target: T3, Signal transducer and activator of transcription 5A (Homo sapiens) (UniProt P42229); experiment: Inhibition of STAT5 phosphorylation in human DU-145 cells at 10 uM measured after 24 hrs by Western blot analysis; format: cell-based
T3 sequence (whole entry): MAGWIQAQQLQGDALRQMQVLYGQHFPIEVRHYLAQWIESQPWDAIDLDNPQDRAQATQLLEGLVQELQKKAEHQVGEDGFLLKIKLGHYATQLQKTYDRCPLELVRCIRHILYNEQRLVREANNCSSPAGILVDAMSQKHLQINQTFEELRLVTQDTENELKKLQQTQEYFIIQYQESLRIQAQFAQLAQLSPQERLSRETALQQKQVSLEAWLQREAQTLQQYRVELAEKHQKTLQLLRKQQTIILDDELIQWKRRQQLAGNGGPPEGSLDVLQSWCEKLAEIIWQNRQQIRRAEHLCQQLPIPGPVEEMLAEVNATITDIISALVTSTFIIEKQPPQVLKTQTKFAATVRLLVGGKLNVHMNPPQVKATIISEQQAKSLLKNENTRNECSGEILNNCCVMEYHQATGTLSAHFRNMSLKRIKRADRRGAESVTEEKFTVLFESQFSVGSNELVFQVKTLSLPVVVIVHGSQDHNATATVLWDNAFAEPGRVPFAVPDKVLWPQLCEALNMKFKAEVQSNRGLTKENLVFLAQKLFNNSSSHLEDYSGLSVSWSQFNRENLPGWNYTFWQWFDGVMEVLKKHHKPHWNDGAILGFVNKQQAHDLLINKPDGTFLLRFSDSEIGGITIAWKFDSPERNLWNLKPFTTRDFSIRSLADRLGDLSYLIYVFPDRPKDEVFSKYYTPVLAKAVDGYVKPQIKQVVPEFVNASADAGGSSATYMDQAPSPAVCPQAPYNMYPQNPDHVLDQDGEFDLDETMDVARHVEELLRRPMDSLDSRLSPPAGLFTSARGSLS

[15] = Tmax in ICR mouse at 5 mg/kg, iv measured upto 96 hrs by HPLC-MS/MS analysis; format: ADME, organism-based; conditions: in vivo
[16] = AUC (0 to t) in ICR mouse at 5 mg/kg, iv measured upto 96 hrs by HPLC-MS/MS analysis; format: ADME, organism-based; set-up: time < 96 hrs, dose 5 mg/kg, route iv; conditions: in vivo
[17] = target: Tyrosine-protein kinase JAK2 (Homo sapiens) (UniProt O60674); experiment: Inhibition of JAK2 phosphorylation in human DU-145 cells at 10 uM measured after 24 hrs by Western blot analysis; format: cell-based
[18] = Clearance in ICR mouse at 50 mg/kg, po measured upto 96 hrs by HPLC-MS/MS analysis; format: ADME, organism-based; conditions: in vivo
[19] = target: T1, Signal transducer and activator of transcription 3; experiment: Inhibition of STAT3 dimerization in human DU-145 cells assessed as increase in amount of STAT3 monomer at upto 10 uM measured after 12 hrs; format: cell-based
HepG2 = experiment: Antiproliferative activity against human HepG2 cells assessed as inhibition of cell growth measured after 96 hrs by MTT assay; format: functional, cell-based; conditions: HepG2, 96 h

T1 sequence (P40763 whole entry, the tested form may be a part): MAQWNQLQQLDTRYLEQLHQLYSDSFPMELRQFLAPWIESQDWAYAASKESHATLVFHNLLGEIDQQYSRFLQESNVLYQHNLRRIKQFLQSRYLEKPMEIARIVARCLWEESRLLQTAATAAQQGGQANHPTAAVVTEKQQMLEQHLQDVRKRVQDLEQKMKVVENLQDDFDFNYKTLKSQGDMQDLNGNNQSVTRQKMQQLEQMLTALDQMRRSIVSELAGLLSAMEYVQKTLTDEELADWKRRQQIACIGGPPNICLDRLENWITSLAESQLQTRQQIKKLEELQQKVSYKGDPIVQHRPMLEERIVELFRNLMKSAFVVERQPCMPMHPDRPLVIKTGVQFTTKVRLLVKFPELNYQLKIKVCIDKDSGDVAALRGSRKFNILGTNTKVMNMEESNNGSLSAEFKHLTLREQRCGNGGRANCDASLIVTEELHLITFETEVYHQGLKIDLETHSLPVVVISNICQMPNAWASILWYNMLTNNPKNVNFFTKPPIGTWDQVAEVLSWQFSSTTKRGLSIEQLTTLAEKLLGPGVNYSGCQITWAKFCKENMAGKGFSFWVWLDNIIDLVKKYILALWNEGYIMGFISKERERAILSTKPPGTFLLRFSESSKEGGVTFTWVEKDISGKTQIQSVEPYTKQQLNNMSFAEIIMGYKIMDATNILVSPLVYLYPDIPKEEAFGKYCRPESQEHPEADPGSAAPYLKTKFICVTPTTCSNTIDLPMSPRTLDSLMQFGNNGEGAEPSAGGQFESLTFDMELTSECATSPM
Tyrosine-protein kinase JAK2 (Homo sapiens), sequence (O60674 whole entry): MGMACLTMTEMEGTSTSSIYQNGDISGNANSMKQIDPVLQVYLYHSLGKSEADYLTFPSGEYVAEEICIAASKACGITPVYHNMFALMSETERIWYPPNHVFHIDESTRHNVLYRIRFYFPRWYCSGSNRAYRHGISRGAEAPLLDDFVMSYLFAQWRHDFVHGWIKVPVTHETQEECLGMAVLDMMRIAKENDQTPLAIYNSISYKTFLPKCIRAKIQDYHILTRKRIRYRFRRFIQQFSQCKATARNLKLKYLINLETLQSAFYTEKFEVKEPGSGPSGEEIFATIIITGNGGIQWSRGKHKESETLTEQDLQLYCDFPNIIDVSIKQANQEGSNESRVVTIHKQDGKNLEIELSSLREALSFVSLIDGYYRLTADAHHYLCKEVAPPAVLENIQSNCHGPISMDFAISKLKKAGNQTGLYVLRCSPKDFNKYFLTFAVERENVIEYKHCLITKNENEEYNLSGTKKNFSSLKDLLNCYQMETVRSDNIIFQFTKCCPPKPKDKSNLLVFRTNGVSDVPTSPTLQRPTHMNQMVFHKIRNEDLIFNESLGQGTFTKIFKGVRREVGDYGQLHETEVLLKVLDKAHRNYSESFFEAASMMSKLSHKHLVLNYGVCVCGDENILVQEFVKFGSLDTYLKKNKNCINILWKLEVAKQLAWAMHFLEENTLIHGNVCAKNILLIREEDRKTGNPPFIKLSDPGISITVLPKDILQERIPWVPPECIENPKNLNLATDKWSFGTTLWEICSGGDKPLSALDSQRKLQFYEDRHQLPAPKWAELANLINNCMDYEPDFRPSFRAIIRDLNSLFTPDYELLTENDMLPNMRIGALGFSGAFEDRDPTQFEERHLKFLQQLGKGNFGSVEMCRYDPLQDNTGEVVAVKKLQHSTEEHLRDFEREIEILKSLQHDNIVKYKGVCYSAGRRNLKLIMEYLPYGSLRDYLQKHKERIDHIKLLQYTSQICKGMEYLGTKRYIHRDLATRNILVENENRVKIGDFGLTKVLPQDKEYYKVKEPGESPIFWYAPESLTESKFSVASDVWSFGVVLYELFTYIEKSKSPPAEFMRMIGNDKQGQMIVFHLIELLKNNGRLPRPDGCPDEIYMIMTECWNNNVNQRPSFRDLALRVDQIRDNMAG

## CN1CCN(c2cc3c(cc2Nc2nnc(-c4ccc(C(F)(F)F)cc4)s2)nc(-c2ccc(F)cc2)n3C2CC2)CC1
[1]
  IC50: 16 µM
DU-145 [2]
  inhibition in vivo at 50 mg/kg: 65.3%
[3]
  half-life: 6.28 h
MDA-MB-231 [4]
  Activity: 5.9%
[5]
  AUC(0-inf): 17800 ng·h/mL
DU-145 [6]
  Activity: 34%
[7]
  inhibition: inactive
[8]
  inhibition: Active
MDA-MB-231 [9]
  Activity: 12.1%
[10]
  Activity: Active
[11]
  Cmax: 910 ng/mL
[12]
  MRT last at 96 h: 17.1 h
[13]
  Activity: Non-Toxic
[14]
  inhibition: inactive
[15]
  Tmax: 3 min
[16]
  AUC(0-t) at 96 h: 3430 ng·h/mL
[17]
  inhibition: inactive
[18]
  CL/F: 46.8 mL/min/kg
[19]
  inhibition: Active
HepG2
  IC50: 1.45 µM

From ChEMBL document CHEMBL5321275, “Discovery, Optimization, and Evaluation of Novel N-(Benzimidazol-5-yl)-1,3,4-thiadiazol-2-amine Analogues as Potent STAT3 Inhibitors for Cancer Treatment” (J Med Chem, 2023)
